Measured values from ChEMBL document CHEMBL3994587, “An insight on synthetic and medicinal aspects of pyrazolo[1,5-a]pyrimidine scaffold” (Eur J Med Chem, 2017).
In brackets after ≈: the same amount, converted by molar mass.

Key:
Escherichia coli [1] = assay: Antibacterial activity against Escherichia coli MTCC 443 assessed as zone of inhibition at 25 to 150 ug/ml measured after 24 hrs by agar well diffusion method; type: functional
Bacillus subtilis [2] = assay: Antibacterial activity against Bacillus subtilis MTCC 441 assessed as zone of inhibition at 25 to 150 ug/ml measured after 24 hrs by agar well diffusion method; type: functional
Staphylococcus aureus [3] = assay: Antibacterial activity against Staphylococcus aureus MTCC 96 assessed as zone of inhibition at 25 to 150 ug/ml measured after 24 hrs by agar well diffusion method; type: functional
Aspergillus niger = assay: Antifungal activity against Aspergillus niger assessed as zone of inhibition at 25 to 150 ug/ml measured after 24 to 48 hrs by agar well diffusion method; type: functional
Aspergillus flavus = assay: Antifungal activity against Aspergillus flavus MTCC 3008 assessed as zone of inhibition at 25 to 150 ug/ml measured after 24 to 48 hrs by agar well diffusion method; type: functional
Candida albicans [4] = assay: Antifungal activity against Candida albicans MTCC 227 assessed as zone of inhibition at 25 to 150 ug/ml measured after 24 to 48 hrs by agar well diffusion method; type: functional
Penicillium chrysogenum = assay: Antifungal activity against Penicillium chrysogenum MTCC 160 assessed as zone of inhibition at 25 to 150 ug/ml measured after 24 to 48 hrs by agar well diffusion method; type: functional
Staphylococcus aureus [5] = assay: Antibacterial activity against Staphylococcus aureus NCTC 7447 assessed as zone of inhibition at 1 mg/ml measured after 24 hrs by agar diffusion method; type: functional; conditions: NCTC 7447, 24 h, read-out: IZ
Bacillus subtilis [6] = assay: Antibacterial activity against Bacillus subtilis NCTC 10400 assessed as zone of inhibition at 1 mg/ml measured after 24 hrs by agar diffusion method; type: functional; conditions: NCTC 10400, 24 h, read-out: IZ
Sarcina = assay: Antibacterial activity against Sarcina sp. NCTC 1117 assessed as zone of inhibition at 1 mg/ml measured after 24 hrs by agar diffusion method; type: functional; conditions: NCTC 1117, 24 h, read-out: IZ
Escherichia coli [7] = assay: Antibacterial activity against Escherichia coli NCTC 10416 assessed as zone of inhibition at 1 mg/ml measured after 24 hrs by agar diffusion method; type: functional; conditions: NCTC 10416, 24 h, read-out: IZ
Serratia marcescens = assay: Antibacterial activity against Serratia marcescens IMRU 70 assessed as zone of inhibition at 1 mg/ml measured after 24 hrs by agar diffusion method; type: functional; conditions: IMRU 70, 24 h, read-out: IZ
[8] = test system: Trichophyton mentagrophytes; assay: Anti-fungal activity against Trichophyton mentagrophytes measured after 48 hrs by broth dilution method; type: functional
Tritrichomonas foetus = assay: Anti-parasitic activity against Tritrichomonas foetus measured after 48 hrs by microscopic analysis; type: functional; conditions: for MIC: Tritrichomonas foetus, 48 h
Aspergillus fumigatus = assay: Antifungal activity against Aspergillus fumigatus RCMB 002006 assessed as zone of inhibition at 30 ug/ml; type: functional; conditions: read-out: IZ
Geotrichum candidum = assay: Antifungal activity against Geotrichum candidum 052008 assessed as zone of inhibition at 30 ug/ml; type: functional; conditions: read-out: IZ
[9] = test system: Syncephalastrum racemosum; assay: Antifungal activity against Syncephalastrum racemosum 005004 assessed as zone of inhibition at 30 ug/ml; type: functional; conditions: read-out: IZ
Candida albicans [10] = assay: Antifungal activity against Candida albicans RCMB 0005003 assessed as zone of inhibition at 30 ug/ml; type: functional; conditions: read-out: IZ
Salmonella typhi = assay: Antibacterial activity against Salmonella typhi MTCC 98 assessed as zone of inhibition at 25 to 150 ug/ml measured after 24 hrs by agar well diffusion method; type: functional, Salmonella enterica subsp. enterica serovar Typhi
Staphylococcus aureus [11] = assay: Antibacterial activity against Staphylococcus aureus RCMB 000108 assessed as zone of inhibition at 30 ug/ml; type: functional; conditions: read-out: IZ
Bacillus subtilis [12] = assay: Antibacterial activity against Bacillus subtilis RCMB 000109 assessed as zone of inhibition at 30 ug/ml; type: functional; conditions: read-out: IZ
Escherichia coli [13] = assay: Antibacterial activity against Escherichia coli RCMB 000106 assessed as zone of inhibition at 30 ug/ml; type: functional; conditions: read-out: IZ
Pseudomonas aeruginosa [14] = assay: Antibacterial activity against Pseudomonas aeruginosa RCMB 000103 assessed as zone of inhibition at 30 ug/ml; type: functional; conditions: read-out: IZ
Translocator protein [15] = target: T1, Translocator protein (Rattus norvegicus, UniProt P16257); assay: Displacement of [3H]PK11195 from PBZR in rat kidney mitochondrial membranes measured after 90 mins by liquid scintillation counting; type: cell membranes
Translocator protein [16] = target: T1, Translocator protein; assay: Displacement of [3H]Ro5-4864 from PBZR in rat kidney mitochondrial membranes measured after 90 mins by liquid scintillation counting; type: cell membranes
Ehrlich = assay: Cytotoxicity against […] EAC cells by trypan blue staining based microscopic analysis; type: functional, cell-based, Mus musculus
Staphylococcus aureus [17] = assay: Antibacterial activity against Staphylococcus aureus measured after 18 hrs by agar dilution method; type: functional
Bacillus subtilis [18] = assay: Antibacterial activity against Bacillus subtilis measured after 18 hrs by agar dilution method; type: functional
Escherichia coli [19] = assay: Antibacterial activity against Escherichia coli measured after 18 hrs by agar dilution method; type: functional
Pseudomonas aeruginosa [20] = assay: Antibacterial activity against Pseudomonas aeruginosa measured after 18 hrs by agar dilution method; type: functional
Candida albicans [21] = assay: Antifungal activity against Candida albicans measured after 18 hrs by agar dilution method; type: functional

T1 sequence (P16257 whole entry, looked up): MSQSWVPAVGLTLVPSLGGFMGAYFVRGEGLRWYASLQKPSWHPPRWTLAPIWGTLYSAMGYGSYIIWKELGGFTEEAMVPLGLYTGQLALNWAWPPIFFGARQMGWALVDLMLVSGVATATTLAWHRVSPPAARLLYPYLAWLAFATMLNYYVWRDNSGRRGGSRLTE

For `Cc1cc(O)c(-c2cc(-c3c(C)nn(-c4ccccc4)c3Cl)n3nc(N)c(/N=N/c4ccc(Cl)cc4)c3n2)cc1Cl`, the “inhibition zone (IZ)” value (Escherichia coli [1]) was 16 mm, the “inhibition zone (IZ)” value (Bacillus subtilis [2]) was 18 mm and the “inhibition zone (IZ)” value (Staphylococcus aureus [3]) was 14 mm. For the same compound, the “inhibition zone (IZ)” value (Aspergillus niger) was 16 mm, the “inhibition zone (IZ)” value (Aspergillus flavus) was 10 mm and the “inhibition zone (IZ)” value (Candida albicans [4]) was 20 mm. The “inhibition zone (IZ)” value (Penicillium chrysogenum) was 19 mm.

With `COc1ccccc1NS(=O)(=O)c1ccc(/N=N/c2c(=O)[nH]n3c(-c4ncccn4)c(C#N)c(N)nc23)cc1` the zone of inhibition at 1000 µg/mL (Staphylococcus aureus [5]) was 15 to 18 mm, the zone of inhibition at 1000 µg/mL (Bacillus subtilis [6]) was 15 to 18 mm and the zone of inhibition at 1000 µg/mL (Sarcina) was 12 to 14 mm. It also gave a zone of inhibition at 1000 µg/mL (Escherichia coli [7]) of 12 to 14 mm and a zone of inhibition at 1000 µg/mL (Serratia marcescens) of 12 to 14 mm.

`CCCCCCCC/C=C\CCCCCCCCNc1cc(C)nc2c(Br)cnn12` was tested, and the MLC [8] was 20 µM (≈ 9.55 µg/mL) and the MIC ([8]; Trichophyton mentagrophytes, 48 h) was 10 µM (≈ 4.78 µg/mL).

`Cc1ncc([N+](=O)[O-])n1CCO` [METRONIDAZOLE] was tested, and the MLC (Tritrichomonas foetus) was 10 µg/mL (≈ 58.4 µM) and the MIC (Tritrichomonas foetus) was 3.2 µg/mL (≈ 18.7 µM).

Work on `Clc1ccccc1C(c1ccccc1)(c1ccccc1)n1ccnc1` [CLOTRIMAZOLE] yielded a zone of inhibition at 30 µg/mL (Aspergillus fumigatus) of 26.3 mm, a zone of inhibition at 30 µg/mL (Geotrichum candidum) of 23.2 mm and a zone of inhibition at 30 µg/mL [9] of 21.4 mm. For the same compound, the zone of inhibition at 30 µg/mL (Candida albicans [10]) was 20.8 mm.

For `Cc1nn(-c2ccccc2)c(Cl)c1-c1cc(-c2cc(Cl)cc(Cl)c2O)nc2c(/N=N/c3ccc(Cl)cc3)c(N)nn12`, the “inhibition zone (IZ)” value (Salmonella typhi) was 24 mm, the “inhibition zone (IZ)” value (Escherichia coli [1]) was 26 mm and the “inhibition zone (IZ)” value (Bacillus subtilis [2]) was 16 mm. For the same compound, the “inhibition zone (IZ)” value (Aspergillus niger) was 18 mm, the “inhibition zone (IZ)” value (Aspergillus flavus) was 21 mm and the “inhibition zone (IZ)” value (Candida albicans [4]) was 17 mm. For the same compound, the “inhibition zone (IZ)” value (Penicillium chrysogenum) was 24 mm.

For `Cc1nn(-c2ccccc2)c(Cl)c1-c1cc(-c2cc(Cl)cc(I)c2O)nc2c(/N=N/c3ccc(Cl)cc3)c(N)nn12`, the “inhibition zone (IZ)” value (Salmonella typhi) was 16 mm, the “inhibition zone (IZ)” value (Escherichia coli [1]) was 17 mm and the “inhibition zone (IZ)” value (Bacillus subtilis [2]) was 15 mm. The “inhibition zone (IZ)” value (Staphylococcus aureus [3]) was 18 mm, the “inhibition zone (IZ)” value (Aspergillus niger) was 26 mm and the “inhibition zone (IZ)” value (Aspergillus flavus) was 21 mm. The “inhibition zone (IZ)” value (Candida albicans [4]) was 19 mm and the “inhibition zone (IZ)” value (Penicillium chrysogenum) was 17 mm.

With `Cc1ccc(-c2cc(-c3c(C)nn(-c4ccccc4)c3Cl)n3nc(N)c(/N=N/c4ccc(Cl)cc4)c3n2)c(O)c1Br` the “inhibition zone (IZ)” value (Salmonella typhi) was 30 mm, the “inhibition zone (IZ)” value (Escherichia coli [1]) was 19 mm and the “inhibition zone (IZ)” value (Staphylococcus aureus [3]) was 10 mm. For the same compound, the “inhibition zone (IZ)” value (Aspergillus niger) was 14 mm, the “inhibition zone (IZ)” value (Aspergillus flavus) was 17 mm and the “inhibition zone (IZ)” value (Candida albicans [4]) was 15 mm. The “inhibition zone (IZ)” value (Penicillium chrysogenum) was 16 mm.

For `Nc1nn2c(-c3ccco3)cc(-c3ccco3)nc2c1/N=N/c1ccccc1`, the zone of inhibition at 30 µg/mL (Staphylococcus aureus [11]) was 16.7 mm, the zone of inhibition at 30 µg/mL (Bacillus subtilis [12]) was 15.7 mm and the zone of inhibition at 30 µg/mL (Escherichia coli [13]) was 15.2 mm. The zone of inhibition at 30 µg/mL (Aspergillus fumigatus) was 14.2 mm, the zone of inhibition at 30 µg/mL (Geotrichum candidum) was 15.3 mm and the zone of inhibition at 30 µg/mL [9] was 10.2 mm.

`Cc1ccc(/N=N/c2c(N)nn3c(-c4ccco4)cc(-c4ccco4)nc23)cc1` gave a zone of inhibition at 30 µg/mL (Staphylococcus aureus [11]) of 22.2 mm, a zone of inhibition at 30 µg/mL (Bacillus subtilis [12]) of 23.3 mm and a zone of inhibition at 30 µg/mL (Pseudomonas aeruginosa [14]) of 18.5 mm. The zone of inhibition at 30 µg/mL (Escherichia coli [13]) was 21.9 mm, the zone of inhibition at 30 µg/mL (Aspergillus fumigatus) was 21.8 mm and the zone of inhibition at 30 µg/mL (Geotrichum candidum) was 19.5 mm. It also gave a zone of inhibition at 30 µg/mL [9] of 14.8 mm and a zone of inhibition at 30 µg/mL (Candida albicans [10]) of 18.1 mm.

Work on `COc1ccc(NS(=O)(=O)c2ccc(/N=N/c3c(=O)[nH]n4c(-c5nccc(C)n5)c(C#N)c(N)nc34)cc2)cc1` yielded a zone of inhibition at 1000 µg/mL (Staphylococcus aureus [5]) of 12 to 14 mm, a zone of inhibition at 1000 µg/mL (Bacillus subtilis [6]) of 9 to 11 mm and a zone of inhibition at 1000 µg/mL (Sarcina) of 15 to 18 mm. It also gave a zone of inhibition at 1000 µg/mL (Escherichia coli [7]) of 12 to 14 mm and a zone of inhibition at 1000 µg/mL (Serratia marcescens) of 15 to 18 mm.

`CCC(CC)C(=O)Cc1c(-c2ccc(Cl)cc2)nn2c(C)cc(-c3ccccc3)nc12` showed a Ki (Translocator protein [15]) of 3.4 nM and a Ki (Translocator protein [16]) of 2.7 nM.

In the case of `CCC(C)n1ncn(-c2ccc(N3CCN(c4ccc(OCC5COC(Cn6cncn6)(c6ccc(Cl)cc6Cl)O5)cc4)CC3)cc2)c1=O` (stereo not drawn) [ITRACONAZOLE], the zone of inhibition at 30 µg/mL (Aspergillus fumigatus) is reported as 27.4 mm, the zone of inhibition at 30 µg/mL (Geotrichum candidum) is reported as 24.2 mm and the zone of inhibition at 30 µg/mL [9] is reported as 23.9 mm. The zone of inhibition at 30 µg/mL (Candida albicans [10]) was 25.2 mm.

In the case of `Cc1nn2c(-c3ccccc3)ccnc2c1/N=N/c1c(C)n(C)n(-c2ccccc2)c1=O`, the ED25 (Ehrlich) is reported as 70.2 µg/mL (≈ 166 µM), the ED100 (Ehrlich) is reported as 99.8 µg/mL and the IC50 (Ehrlich; Mus musculus, Ehrlich) is reported as 3.13 µg/mL (≈ 7.39 µM). For the same compound, the EC50 (Ehrlich; Mus musculus, Ehrlich, read-out: ED50 (the source's name)) was 87.1 µg/mL (≈ 206 µM).

`Cc1nc(-c2ccccc2)sc1-c1ccn2nc(-c3ccccc3)cc2n1` was tested, and the MIC (Staphylococcus aureus [17]) was ≥ 800 µg/mL, the MIC (Bacillus subtilis [18]) was ≥ 800 µg/mL and the MIC (Escherichia coli [19]) was ≥ 800 µg/mL. The MIC (Pseudomonas aeruginosa [20]) was ≥ 800 µg/mL and the MIC (Candida albicans [21]) was ≥ 800 µg/mL.

For `CCOC(=O)c1cn(CC)c2c([N+](=O)[O-])cnn2c1=O`, the MLC (Tritrichomonas foetus) was 3.2 µg/mL (≈ 11.4 µM) and the MIC (Tritrichomonas foetus) was 1 µg/mL (≈ 3.57 µM).
